Measurements as given in patent US9238634B2, “Anti-inflammatory metabolite derived from omega-3-type fatty acid” (THE UNIVERSITY OF TOKYO, priority 2010, dated 2016).

Test system: PMN (neutrophils)
Assay: Zymosan peritonitis model, number of PMN (neutrophils) in intraperitoneal cells by FACS
Type: in vivo, C57BL/6J mice
Settings: for PMN (mean % suppression) / Inhibition rate (PMN inhibition): caudal vein, zymosan 1 mg i.p.; for PMN (mean % suppression): two hours; for suppression of neutrophil infiltration: caudal vein (FIG. 4C); for Inhibition rate (PMN inhibition): cells recovered two hours later
Procedure: [FIG. 4A] […] The model was produced by inducing acute peritonitis by intraperitoneal administration of 1 mg of zymosan to C57BL6 mice. From the left, 17,18-EpETE, 5-hydroxy-17,18-epoxy-ETE (5hy-17,18-EpETE), 8-hydroxy-17,18-epoxy-ETE (8hy-17,18-EpETE), 12-hydroxy-17,18-epoxy-ETE (12hy-17,18-EpETE), and 15-hydroxy-17,18-epoxy-ETE (15hy-17,18-EpETE) respectively ([…]) were injected from a caudal vein of the mouse, and peritonitis was initiated by intraperitoneal administration of 1 mg of zymosan five minutes later. Intraperitoneal cells were recovered two hours later, and the results obtained by analyzing the number of PMN (neutrophils) of each by FACS are shown. […]
Zymosan peritonitis induced by intraperitoneal administration of zymosan, which is a cell wall component of yeast, was used as the inflammation model. This model is suited to the analysis of cytokines and eicosanoids since the intraperitoneal exudate can be recovered.
Zymosan A (Wako Pure Chemical Industries) was suspended in physiological saline to make 1 mg/mL and warmed for 30 minutes at 37° C. The zymosan A solution was then vortexed and returned to room temperature. A compound synthesized in a previous example was placed in a 1.5 mL tube and completely dried by driving off the solvent by nitrogen. It was then dissolved by adding physiological saline. […] Groups injected with only physiological saline (saline) or dexamethasone (10 μg/mouse), which is an anti-inflammatory steroid, were used as controls. Approximately two minutes later, 1 mL of zymosan A solution was administered intraperitoneally. Two hours later, cells that had exuded into the peritoneal cavity were recovered by tube by PBS, and the cells were counted. This tube was then centrifuged for five minutes at 1200 rpm, 4° C., and the supernatant was discarded. The precipitate (pellets) was suspended in PBS, and population analysis was performed by FACS three-color stain.
Peritoneal cells were adjusted to 2.5×10^6 cells/mL, and 200 μL was placed in a 5 mL round-bottomed tube (BD Falcon) (5×10^5 cells/tube). A quantity of 1 μL/tube of anti-mouse CD16/CD32 antibody (0.5 mg/mL; BD Biosciences) was added to this tube and incubated for 10 minutes at room temperature. Staining antibody mix (1.0 μL/sample of FITC-bound anti-mouse F4/80 antibody (0.5 mg/mL; eBioscience), 0.5 μL of PE-bound anti-mouse Ly-6G&Ly-6C antibody (0.2 mg/mL; eBioscience), and 0.5 μL of perCP-Cy5.5-bound anti-mouse CD11b antibody (0.2 mg/mL; eBioscience) per sample prepared by dilution by 50 μL of PBS) was added to this tube in a quantity of 50 μL/tube and incubated for 15 minutes at room temperature shielded from light. Measurement was performed by an FACS Calibur (BD Biosciences).

[1] = 100 ng, Table 6 (FIG. 4D), mean of 6-11 studies
[2] = 100 ng, Table 4 (FIG. 4B), mean of 3-4 studies
[3] = 100 ng, Table 3 (FIG. 4A), mean of 4-6 studies
[4] = 100 ng, Table 5 (FIG. 4B), mean of 3-4 studies

Molecule: 14-hydroxy-19,20-epoxy-docosatetraenoic acid [14hy-19,20-EpDTE]
- suppression of neutrophil infiltration, result in words (100 ng): statistically significant effects
- PMN (mean % suppression) [1]: 15.35%

Molecule: 17-hydroxy-19,20-epoxy-docosatetraenoic acid [17hy-19,20-EpDTE]
- suppression of neutrophil infiltration, result in words (100 ng): statistically significant effects
- PMN (mean % suppression) [1]: 23.28%

Molecule: CCC1OC1CC=CCC=CCC=CCC=CC=CC(O)CCC(=O)O (stereo not shown) [4-hy-19,20-EpDPE, 4-hydroxy-19,20-epoxy-docosapentaenoic acid]
- suppression of neutrophil infiltration, result in words (100 ng): tend to suppress neutrophil infiltration
- PMN (mean % suppression) [2]: 2.1%
- PMN (mean % suppression) (500 ng, Table 4 (FIG. 4B)): 0.0%

Molecule: CCC1OC1CC=CCC=CCC=CC=CC(O)CCCC(=O)O (stereo not shown) [5-hy-17,18-EpETE, 5-hydroxy-17,18-epoxy-eicosatetraeonic acid]
- PMN (mean % suppression) [3]: 50.6%

Molecule: CCC1OC1CC=CCC=CCC=CC=CC(O)CC=CCCC(=O)O (stereo not shown) [7-hy-19,20-EpDPE, 7-hydroxy-19,20-epoxy-docosapentaenoic acid]
- PMN (mean % suppression) [2]: 0.0%
- suppression of neutrophil infiltration, result in words (500 ng): tend to suppress neutrophil infiltration
- PMN (mean % suppression) (500 ng, Table 4 (FIG. 4B)): 8.7%

Molecule: CCC1OC1C/C=C\C/C=C\C=C\C(O)C/C=C\CCCC(=O)O (stereo not shown) [8-hy-17,18-EpETE, 8-hydroxy-17,18-epoxy-eicosatetraenoic acid]
- PMN (mean % suppression) [3]: 10.4%

Molecule: CCC1OC1CC=CCC=CC=CC(O)CC=CCC=CCCC(=O)O (stereo not shown) [10-hy-19,20-EpDPE, 10-hydroxy-19,20-epoxy-docosapentaenoic acid]
- PMN (mean % suppression) [4]: 20.7%

Molecule: CCC1OC1C/C=C\C/C=C\C=C\C(O)C/C=C\CCCCCC(=O)O (stereo not shown) [10hy-19,20-EpDTE, 10-hydroxy-19,20-epoxy-docosatetraenoic acid]
- suppression of neutrophil infiltration, result in words (100 ng): tendency toward suppression
- PMN (mean % suppression) [1]: 8.27%

Molecule: CCC1OC1CC=CCC(O)C=CC=CCC=CCCCC(=O)O (stereo not shown) [12hy-17,18-EpETE, 12-hydroxy-17,18-epoxy-eicosatetraenoic acid]
- suppression of neutrophil infiltration (1 ng/mouse): 30%
- suppression of neutrophil infiltration (10 ng/mouse): approximately 40%
- PMN (mean % suppression) [3]: 48.4%
- neutrophil-suppressing activity compared with dexamethasone control (1 or 10 ng/mouse versus 10 μg/mouse of dexamethasone): equivalent to or better than
- Inhibition rate (PMN inhibition) (dose 0.44 ng): 28.8%
- Inhibition rate (PMN inhibition) (dose 4.35 ng): 39.3%
- Inhibition rate (PMN inhibition) (dose 43.48 ng): 56.3%
- Inhibition rate (PMN inhibition) (dose 434.8 ng): 49.8%
- dose dependence of PMN inhibition (doses 0.44 to 434.3 ng (FIG. 4C)): dose-dependent

Molecule: CCC1OC1CC=CC=CC(O)CC=CCC=CCC=CCCC(=O)O (stereo not shown) [13-hy-19,20-EpDPE, 13-hydroxy-19,20-epoxy-docosapentaenoic acid]
- PMN (mean % suppression) [4]: 12.0%

Molecule: CCC1OC1CC=CCC(O)C=CC=CCC=CCC=CCCC(=O)O (stereo not shown) [14-hy-19,20-EpDPE, 14-hydroxy-19,20-epoxy-docosapentaeonic acid]
- PMN (mean % suppression) [4]: 57.3%

Molecule: CCC1OC1CC(O)/C=C/C=C\C/C=C\C/C=C\CCCC(=O)O (stereo not shown) [15-hy-17,18-EpETE, 15-hydroxy-17,18-epoxy-eicosatetraenoic acid]
- PMN (mean % suppression) [3]: 42.9%

Molecule: CCC1OC1C/C=C\C/C=C\C/C=C\C/C=C\CCCC(=O)O (stereo not shown) [17,18-EpETE, 17,18-epoxyeicosatetraenoic acid, reference compound]
- PMN (mean % suppression) [3]: 0.0%

Molecule: CCC1OC1CC(O)C=CC=CCC=CCC=CCC=CCCC(=O)O (stereo not shown) [17-hy-19,20-EpDPE, 17-hydroxy-19,20-epoxy-docosapentaenoic acid]
- PMN (mean % suppression) [4]: 59.5%

Molecule: CCC1OC1CC=CCC=CCC=CCC=CCC=CCCC(=O)O (stereo not shown) [19,20-EpDPE, 19,20-epoxydocosapentaenoic acid, reference compound]
- PMN (mean % suppression) [2]: 0.0%
- PMN (mean % suppression) [4]: 0.0%
